In this test the test system is hippocampus of LPS-treated mice. Kind of test: LPS-induced hippocampal pro-inflammatory gene response in mice (qPCR, microglial morphology). The class given is in vivo, mouse. As to the method: The murine in vivo studies were conducted in accordance with the National Institutes of Health guidelines for the use of experimental animals and protocols were approved by the Institutional Animal Care and Use Committee. C57B6 EP4 floxed mice (Schneider et al., 2004) were kindly provided by Drs. Richard and Matthew Breyer (Vanderbilt University School of Medicine, Nashville, Tenn.), and C57B6 Cd11bCre mice (Boillee et al., 2006) were kindly provided by Dr. G. Kollias (Alexander Fleming Biomedical Sciences Research Center, Vari, Greece) and Dr. Donald Cleveland (UCSD, San Diego, Calif.). All mice were housed in an environment controlled for lighting (12 hour light/dark cycle), temperature, and humidity, with food and water available ad libitum. Cd11bCre:EP4f/f and Cd11bCre:EP4+/+ mice were generated by serial crosses of C57B6 Cd11bCre and EP4f/f and EP4+/+ lines. Male Cd11bCre: EP4f/f and Cd11bCre: EP4+/+ mice were treated with either saline or LPS (5 mg/kg intraperitoneally: n=5-8 per group, 13 months of age). 24 hours after injection, mice were euthanized and brain tissue was harvested and frozen at −80° C. For pharmacological experiments, C57B6 male mice (Jackson Laboratories, Bar Harbor, Me.; n=7 or 8 per group) received an injection of saline or LPS (5 mg/kg, i.p.+/−vehicle or AE1-329 ([…]) (Qin et al., 2007; Nagamatsu et al., 2006). Mice were euthanized 6 hours later, and brain tissue was harvested and frozen at −80° C. For collection of plasma, C57B6 male mice (n=5 per group) received an injection of saline or LPS (5 mg/kg, i.p.)+/−AE1-329 ([…] s.c.) or vehicle. Mice were deeply anesthetized with isoflurane at 3 h and blood was collected in a 1-ml syringe pre-coated with EDTA (250 mM) and placed in EDTA coated tubes. […]
qPCR was carried out as previously described (Liang et al., 2008). […] The mRNA level for each target gene was quantified by SYBR Green-based qPCR using the QuantiTect SYBR Green PCR kit (Qiagen). […] Quantification was performed using the standard curve method. […]

Setting [1] is: mice, LPS 5 mg/kg i.p., AE1-329 300 μg/kg s.c., 6 hours.

As for `COCc1ccccc1CC[C@H](O)/C=C/[C@H]1[C@H](O)CC(=O)[C@@H]1SCCCSCC(=O)O` [AE1-329], under setting [1], the “LPS-induced COX-2, iNOS, TNF-α, IL-6 and IL-1β mRNA levels in hippocampus” value is “significantly attenuated”; the “hippocampal expression of NADPH oxidase subunits gp91phox, p67phox and p47phox” value was “trend toward decreased expression”. Besides, the “microglial morphological changes in response to LPS (Iba1 staining)” value (mouse hippocampal CA1, 6 hours after LPS + AE1-329) is recorded as “modestly decreased”.

The values are drawn from patent US20120283293A1, “Methods of neuroprotection involving Prostaglandin E2 EP4 (PGE2 EP4) receptor activation” (The Board of Trustees of the Leland Stanford Junior …, priority 2011, published 2012).
